Values quoted from earlier work in paper PMC7849180 (Frontiers in Pharmacology, 2020).
Like-named read-outs stand apart in the source and are kept apart here.

Assays:
myelofibrosis [1] = tested on: myelofibrosis; design: method as in Ruxolitinib Phase I/II trials; conditions: within 3 months, 153 MF patients, ref Ruxolitinib Phase I/II trials; cited from earlier work
myelofibrosis [2] = tested on: myelofibrosis; design: method as in COMFORT-I; conditions: ref COMFORT-I; cited from earlier work
myelofibrosis [3] = tested on: myelofibrosis; design: method as in COMFORT-II; conditions: Week 48, ref COMFORT-II; cited from earlier work
polycythemia vera = conditions: cited from earlier work
myelofibrosis [4] = tested on: myelofibrosis; design: method as in RA Abdelrahman et. al.; conditions: ref RA Abdelrahman et. al., cited from earlier work; for CR / Clinical Improvement (CI) / PR: 2013 IWG-MRT criteria; for patients with symptom improvement: 2013 IWG-MRT-ELN criteria
myelofibrosis [5] = conditions: ref Momelotinib extension study; cited from earlier work
myelofibrosis [6] = conditions: cited from earlier work
[7] = 150 mg bid, ref Momelotinib Phase I/II
[8] = 150 mg qd, ref Momelotinib Phase I/II
[9] = 300 mg qd, ref Momelotinib Phase I/II
[10] = Grade 1, ref Momelotinib Phase I/II
[11] = Grade 2, ref Momelotinib Phase I/II
[12] = Grade 3, ref Momelotinib Phase I/II
[13] = Grade 4, ref Momelotinib Phase I/II
[14] = Total (n=166), ref Momelotinib Phase I/II
[15] = all cases (n=166), ref Momelotinib Phase I/II

N#CC[C@H](C1CCCC1)n1cc(-c2ncnc3[nH]ccc23)cn1 [Ruxolitinib]
patients with >50% reduction in spleen volume (myelofibrosis [1]): 44%
patients with ≥35% reduction in spleen volume (myelofibrosis [2]): 41.9%
patients with ≥35% reduction in spleen volume (myelofibrosis [3]): 28%
Thrombus, patients (polycythemia vera; Ruxolitinib group, ref RESPONSE study): 1
Herpes zoster infection (polycythemia vera; in vivo): 6%
herpes zoster incidence (polycythemia vera; in vivo): 4.7%
CR (myelofibrosis [4]): 0 (0%) n (%)
Clinical Improvement (CI) (myelofibrosis [4]): 9 (18%) n (%)
PR (myelofibrosis [4]): 0 (0%) n (%)
patients with symptom improvement (myelofibrosis [4]): 18%
Anemia Response (myelofibrosis [4]): 19 (2; 11%) n (responses; %)
Anemia Response in Transfusion-Dependent Patients (myelofibrosis [4]): 12 (2; 17%) n (responses; %)
Spleen Response (myelofibrosis [4]): 46 (7; 15%) Evaluables (responses; %)
anemia response rate (myelofibrosis [4]): 11%
spleen volume reduction response rate (myelofibrosis [4]): 15%

N#CCNC(=O)c1ccc(-c2ccnc(Nc3ccc(N4CCOCC4)cc3)n2)cc1 [Momelotinib]
CR (myelofibrosis [4]): 0 (0%) n (%)
Clinical Improvement (CI) (myelofibrosis [4]): 34 (57%) n (%)
PR (myelofibrosis [4]): 1 (1.7%) n (%)
patients with symptom improvement (myelofibrosis [4]): 57%
Anemia Response (myelofibrosis [4]): 42 (19; 45%) n (responses; %)
Anemia Response in Transfusion-Dependent Patients (myelofibrosis [4]): 32 (17; 53%) n (responses; %)
Spleen Response (myelofibrosis [4]): 57 (24; 42%) Evaluables (responses; %)
anemia response rate (myelofibrosis [4]): 45%
spleen volume reduction response rate (myelofibrosis [4]): 42%
First Dose Effect: hypotension (myelofibrosis [5]): 5%
First Dose Effect: transient dizziness (myelofibrosis [5]): 10%
Grade 3/4 thrombocytopenia (myelofibrosis [5]): 30%
median maintenance duration of anemia response (myelofibrosis [5]): 1,042 days
median spleen response duration (myelofibrosis [5]): 785 days
patients with anemia response (myelofibrosis [5]): 53%
patients with spleen response (IWG-MRT) (myelofibrosis [5]): 39%
Average Reduction in Spleen Volume at Month 6 (myelofibrosis [6]; [7]): -46%
Hemoglobin Elevation of 2 g/dL or Above (8 Weeks) (myelofibrosis [6]; [7]): 14%
IWG-MRT Anemia Response Rate (myelofibrosis [6]; [7]): 36%
Spleen Response (myelofibrosis [6]; [7]): 38%
Transfusion Independence Rate (12 Weeks) (myelofibrosis [6]; [7]): 57%
Average Reduction in Spleen Volume at Month 6 (myelofibrosis [6]; [8]): -36%
Hemoglobin Elevation of 2 g/dL or Above (8 Weeks) (myelofibrosis [6]; [8]): 11%
IWG-MRT Anemia Response Rate (myelofibrosis [6]; [8]): 48%
Spleen Response (myelofibrosis [6]; [8]): 32%
Transfusion Independence Rate (12 Weeks) (myelofibrosis [6]; [8]): 63%
Average Reduction in Spleen Volume at Month 6 (myelofibrosis [6]; [9]): -38%
Hemoglobin Elevation of 2 g/dL or Above (8 Weeks) (myelofibrosis [6]; [9]): 8%
IWG-MRT Anemia Response Rate (myelofibrosis [6]; [9]): 55%
Spleen Response (myelofibrosis [6]; [9]): 39%
Transfusion Independence Rate (12 Weeks) (myelofibrosis [6]; [9]): 75%
ALP Elevation (myelofibrosis [6]; [10]): 5%
ALT Elevation (myelofibrosis [6]; [10]): 9%
AST Elevation (myelofibrosis [6]; [10]): 9%
Amylase Elevation (myelofibrosis [6]; [10]): 7%
Anemia, drug-related AE (myelofibrosis [6]; [10]): 2%
Bilirubin Elevation (myelofibrosis [6]; [10]): 7%
Creatinine Elevation (myelofibrosis [6]; [10]): 5%
Diarrhea, drug-related AE (myelofibrosis [6]; [10]): 18%
Headache, drug-related AE (myelofibrosis [6]; [10]): 14%
Leukopenia, drug-related AE (myelofibrosis [6]; [10]): 2%
Lipase Elevation (myelofibrosis [6]; [10]): 8%
Nausea, drug-related AE (myelofibrosis [6]; [10]): 20%
Neutropenia, drug-related AE (myelofibrosis [6]; [10]): < 1%
Peripheral Neuropathy, drug-related AE (myelofibrosis [6]; [10]): 25%
Thrombocytopenia, Baseline Platelet > 150 x 109/L (n=97) (myelofibrosis [6]; [10]): 18%
Thrombocytopenia, drug-related AE (myelofibrosis [6]; [10]): 14%
Vertigo, drug-related AE (myelofibrosis [6]; [10]): 22%
ALP Elevation (myelofibrosis [6]; [11]): 1%
ALT Elevation (myelofibrosis [6]; [11]): 3%
AST Elevation (myelofibrosis [6]; [11]): 2%
Amylase Elevation (myelofibrosis [6]; [11]): 2%
Anemia, drug-related AE (myelofibrosis [6]; [11]): 2%
Bilirubin Elevation (myelofibrosis [6]; [11]): 2%
Creatinine Elevation (myelofibrosis [6]; [11]): 3%
Diarrhea, drug-related AE (myelofibrosis [6]; [11]): 4%
Leukopenia, drug-related AE (myelofibrosis [6]; [11]): < 1%
Lipase Elevation (myelofibrosis [6]; [11]): < 1%
Nausea, drug-related AE (myelofibrosis [6]; [11]): < 1%
Neutropenia, drug-related AE (myelofibrosis [6]; [11]): 2%
Peripheral Neuropathy, drug-related AE (myelofibrosis [6]; [11]): 2%
Thrombocytopenia, Baseline Platelet > 150 x 109/L (n=97) (myelofibrosis [6]; [11]): 1%
Thrombocytopenia, drug-related AE (myelofibrosis [6]; [11]): 8%
Vertigo, drug-related AE (myelofibrosis [6]; [11]): 1%
ALP Elevation (myelofibrosis [6]; [12]): 1%
ALT Elevation (myelofibrosis [6]; [12]): 2%
AST Elevation (myelofibrosis [6]; [12]): 1%
Anemia, drug-related AE (myelofibrosis [6]; [12]): 2%
Headache, drug-related AE (myelofibrosis [6]; [12]): 1%
Lipase Elevation (myelofibrosis [6]; [12]): 4%
Neutropenia, drug-related AE (myelofibrosis [6]; [12]): 1%
Thrombocytopenia, Baseline Platelet > 150 x 109/L (n=97) (myelofibrosis [6]; [12]): 9%
Thrombocytopenia, drug-related AE (myelofibrosis [6]; [12]): 17%
Leukopenia, drug-related AE (myelofibrosis [6]; [13]): < 1%
Neutropenia, drug-related AE (myelofibrosis [6]; [13]): 2%
Thrombocytopenia, Baseline Platelet > 150 x 109/L (n=97) (myelofibrosis [6]; [13]): 1%
Thrombocytopenia, drug-related AE (myelofibrosis [6]; [13]): 7%
Hemoglobin Elevation of 2 g/dL or Above (8 Weeks) (myelofibrosis [6]; [14]): 13%
IWG-MRT Anemia Response Rate (myelofibrosis [6]; [14]): 48%
Transfusion Independence Rate (12 Weeks) (myelofibrosis [6]; [14]): 68%
Average Reduction in Spleen Volume at Month 6 (myelofibrosis [6]; [15]): -38%
Spleen Response (myelofibrosis [6]; [15]): 37%
transfusion dependent patients with non-transfusion dependent duration of at least 12 weeks (myelofibrosis [6]; n=33, ref Momelotinib Phase I/II): 70%
patients with improvement of anemia (myelofibrosis [6]; ref Momelotinib Phase I/II): 59%
symptom controlled: bone pain (myelofibrosis [6]; ref Momelotinib Phase I/II): 33%
symptom controlled: cough (myelofibrosis [6]; ref Momelotinib Phase I/II): 29%
symptom controlled: fever (myelofibrosis [6]; ref Momelotinib Phase I/II): 100%
symptom controlled: night sweat (myelofibrosis [6]; ref Momelotinib Phase I/II): 57%
symptom controlled: pruritus (myelofibrosis [6]; ref Momelotinib Phase I/II): 52%
